EP2426213A1, “Marker for sunitnib resistance formation” (Max-Planck-Gesellschaft zur Förderung der Wissenschaften …, priority 2010, dated 2012)

Experiments:
Assay type in all cases: cell-based, Human
[1] = system: A498; assay: Propidium iodide (PI) apoptosis assay, LD50 after 72 h
Protocol: (§1) Human kidney carcinoma and melanoma cell lines A498, A704, CAKI1, CAKI2, WM115, WM266-4 and C8161 were provided by M. Herlyn (Wistar Institute, Philadephia) and R. Gillies (Arizona Cancer Center, Phoenix) or purchased from the American Tissue Culture Collection. CAKI1, CAKI2 and C8161 cells were cultured in Dulbecco's modified Eagle's medium (DMEM; Gibco Life Technologies Inc.), supplemented with 10 % fetal calf serum (FCS), 2 mM glutamine, and 1 % nonessential amino acids. A498, A704 and WM115 cells were cultured in Minimum Essential Medium (MEM; Gibco Life Technologies Inc.) supplemented with 10 % FCS, 2 mM glutamine, and 1 % (v/v) nonessential amino acids. WM266-4 cells were cultured in RPMI medium (Gibco Life Technologies Inc.), supplemented with 10 % FCS and 2 mM glutamine.
(§2) The cells were treated with Sunitinb concentrations between 2.5 µM and 20 µM for 72 h and apoptosis was determined according to Nicoletti's procedure (Riccardi and Nicoletti 2006). BD CellQuest Pro software (Becton Dickinson) for subG1 peak detection was used to determine the extent of the apoptotic cell formation. Statistical evaluation of the half maximal lethal dose-(LD50) values was assessed by using SigmaPlot (Systat Software, Inc., version 10).

[2] = system: CAKI1; assay: as above
Protocol: as §1, §2

[3] = system: C8161^NDes; assay: Apoptosis LD50 in Sorafenib desensitized cell line
Protocol: as §2
(§3) To determine the drug specificity of the selection process, we also established Sorafenib selected polyclonal cell populations using the same conditions.

[4] = system: WM115^NDes; assay: Apoptosis LD50 in Sorafenib desensitized cell line
Protocol: as §2, §3

[5] = system: WM266-4^NDes; assay: Apoptosis LD50 in Sorafenib desensitized cell line
Protocol: as §2, §3

[6] = system: A704; assay: Propidium iodide (PI) apoptosis assay, LD50 after 72 h; conditions: A704 parental, Sunitinib 2.5-20 µM, apoptosis (subG1)
Protocol: as §1, §2

[7] = system: C8161; assay: as above; conditions: C8161 parental; Sunitinib 72 h; apoptosis (subG1)
Protocol: as §1, §2

[8] = system: WM115; assay: as above; conditions: WM115 parental; Sunitinib 72 h; apoptosis (subG1)
Protocol: as §1, §2

[9] = system: WM266-4; assay: as above; conditions: WM266-4 parental; Sunitinib 72 h; apoptosis (subG1)
Protocol: as §1, §2

[10] = system: A498^SDes; assay: Apoptosis LD50 in Sunitinib desensitized cell line; conditions: A498^SDes compared to parental cell line; 72 h
Protocol: as §2

[11] = system: A704^SDes; assay: Apoptosis LD50 in Sunitinib desensitized cell line; conditions: A704^SDes compared to parental cell line; 72 h
Protocol: as §2

[12] = system: C8161^Sdes; assay: Apoptosis LD50 in Sunitinib desensitized cell line; conditions: C8161^Sdes compared to parental cell line; 72 h
Protocol: as §2

[13] = system: WM115^SDes; assay: Apoptosis LD50 in Sunitinib desensitized cell line; conditions: WM115^SDes compared to parental cell line; 72 h
Protocol: as §2

[14] = system: WM266-4^SDes; assay: Apoptosis LD50 in Sunitinib desensitized cell line; conditions: WM266-4^SDes compared to parental cell line; 72 h
Protocol: as §2

[15] = system: A704^NDes; assay: Apoptosis LD50 in Sorafenib selected cell line
Protocol: as §2, §3

[16] = system: A498^SDes; assay: Increased Sunitinib-induced apoptosis (AdA) after siRNA knock-down, PI assay; conditions: Sunitinib 72 h
Protocol: (§4) The cells were seeded with equal numbers in 6-Well plates and transfected with 40 pmol siRNA (PRKX (AMBION, cat. no.: s224410, s224411, s11195), TTBK2 (AMBION, cat. no.: s44812, s44813, s44814), RSK4/RPS6KA6 (AMBION, cat. no.: s223751, s223752, s223753) and 5 µl lipofectamine RNAiMAX (Invitrogen) following the manufacturers' protocols. To determine the knock-down efficiency, semi-quantitative RT-PCR was performed (Primer list, see table 1). Table 1: Primer used for RT-PCR
(§5) Apoptotic cell formation was monitored according to Nicoletti's procedure.
(§6) To analyze the increased Sunitinib-induced apoptosis (AdA) upon gene-expression reduction compared to the control siRNA, apoptosis was determined using PI-Assays after 72 h. Gene knock-downs ranged between 50% and 90%, as estimated by scanning densitometry (Fig. 4A). […] Like for PRKX and TTBK2, the […] in gene-expression strongly correlated with the degree of desensitization.

[17] = system: A498; assay: as above; conditions: Sunitinib 72 h
Protocol: as §4, §5, §6

[18] = system: C8161^NDes; assay: as above; conditions: C8161NDes, Sunitinib 72 h
Protocol: as §4, §5, §6

[19] = system: C8161^Sdes; assay: as above; conditions: Sunitinib 72 h
Protocol: as §4, §5, §6

[20] = system: C8161; assay: as above; conditions: Sunitinib 72 h
Protocol: as §4, §5, §6

[21] = system: WM115^NDes; assay: as above; conditions: Sunitinib 72 h
Protocol: as §4, §5, §6

[22] = system: WM115; assay: as above; conditions: Sunitinib 72 h
Protocol: as §4, §5, §6

[23] = system: WM266-4^NDes; assay: as above; conditions: Sunitinib 72 h
Protocol: as §4, §5, §6

[24] = system: WM266-4^SDes; assay: as above; conditions: Sunitinib 72 h
Protocol: as §4, §5, §6

[25] = system: WM266-4; assay: as above; conditions: Sunitinib 72 h
Protocol: as §4, §5, §6

[26] = system: WM115^SDes; assay: as above; conditions: RSK4 reduction by siRNA vs control siRNA, Sunitinib 72 h
Protocol: as §4, §5

[27] = system: A498^SDes cells; assay: Boyden Chamber migration assay after siRNA knock-down and Sunitinib treatment; conditions: Sunitinib 12 h
Protocol: as §4, §5
(§7) Then, cells were seeded onto a membrane with 8 µm pores of a modified Boyden chamber (Schubert and Weiss) containing 500 µL serum-free medium. 10 % FCS served as chemo-attractant.

[28] = system: parental A498 cells; assay: as above; conditions: Sunitinib 12 h
Protocol: as §4, §5, §7

[29] = PRKX reduction by siRNA vs control siRNA
[30] = RSK4 reduction by siRNA vs control siRNA
[31] = TTBK2 reduction by siRNA vs control siRNA

## CNC(=O)c1cc(Oc2ccc(NC(=O)Nc3ccc(Cl)c(C(F)(F)F)c3)cc2)ccn1 [Sorafenib]
[1]; parental A498
  Sorafenib sensitivity (apoptosis): insensitivity
[2]; parental CAKI1
  Sorafenib sensitivity (apoptosis): insensitivity
[3]; C8161^NDes, Sorafenib LD50
  decreased sensitivities against Sorafenib compared to the parental cell lines: 249%
[4]; WM115^NDes, Sorafenib LD50
  decreased sensitivities against Sorafenib compared to the parental cell lines: 197%
[5]; WM266-4^NDes, Sorafenib LD50
  decreased sensitivities against Sorafenib compared to the parental cell lines: 130%

## CCN(CC)CCNC(=O)c1c(C)[nH]c(/C=C2\C(=O)Nc3ccc(F)cc32)c1C [Sunitinib]
[1]; A498 parental, Sunitinib 72 h, apoptosis (subG1)
  LD50-values: 12.4 ± 0.4 µM
[6]
  LD50-values: 2.2 ± 0.4 µM
[7]
  LD50-values: 15.5 ± 0.7 µM
[2]; CAKI1 parental, Sunitinib 72 h, apoptosis (subG1)
  LD50-values: 16.6 ± 1.5 µM
[8]
  LD50-values: 3.6 ± 0.9 µM
[9]
  LD50-values: 6.4 ± 1.3 µM
[10]
  increase of the LD50-values: 122%
[11]
  increase of the LD50-values: 344%
[12]
  increase of the LD50-values: 112%
[13]
  increase of the LD50-values: 301%
[14]
  increase of the LD50-values: 174%
[15]; A704^NDes (Sorafenib selected)
  Sunitinib LD50-value: 9.0 ± 2.5 µM
[15]; A704^NDes in comparison to the parental cell line
  increased Sunitinib LD50-value: 419%
[3]; C8161^Ndes compared to parental
  decrease in Sunitinib sensitivity: 77%
[4]; WM115^Ndes compared to parental
  increase of the Sunitinib LD50-values: 249%
[5]; WM266-4^Ndes compared to parental
  increase of the Sunitinib LD50-values: 168%
[16]; PRKX reduction by siRNA vs control siRNA, A498SDes
  increased Sunitinib-induced apoptosis (AdA): 14.7 ± 4.4%
[16]; RSK4 reduction by siRNA vs control siRNA, A498^SDes
  increased Sunitinib-induced apoptosis (AdA): 14.7 ± 4.4%
[16]; TTBK2 reduction by siRNA vs control siRNA, A498^SDes
  increased Sunitinib-induced apoptosis (AdA): 13.6 ± 0.4%
[17]; [29]
  increased Sunitinib-induced apoptosis (AdA): 6.5 ± 3.2%
[17]; [30]
  increased Sunitinib-induced apoptosis (AdA): 6.5 ± 3.2%
[17]; [31]
  increased Sunitinib-induced apoptosis (AdA): 7.1 ± 3.1%
[18]; [29]
  increased Sunitinib-induced apoptosis (AdA): 18.1 ± 8.8%
[18]; [30]
  increased Sunitinib-induced apoptosis (AdA): 6.0 ± 2.1%
[18]; [31]
  increased Sunitinib-induced apoptosis (AdA): -2.2 ± 6.8%
[19]; PRKX reduction by siRNA vs control siRNA, C8161SDes
  increased Sunitinib-induced apoptosis (AdA): 35.8 ± 9.9%
[19]; RSK4 reduction by siRNA vs control siRNA, C8161SDes
  increased Sunitinib-induced apoptosis (AdA): 11.9 ± 4.8%
[19]; TTBK2 reduction by siRNA vs control siRNA, C8161^SDes
  increased Sunitinib-induced apoptosis (AdA): 20.3 ± 8.1%
[20]; [29]
  increased Sunitinib-induced apoptosis (AdA): 19.4 ± 2.4%
[20]; [30]
  increased Sunitinib-induced apoptosis (AdA): 12.5 ± 3.6%
[20]; [31]
  increased Sunitinib-induced apoptosis (AdA): 7.3 ± 4.8%
[21]; PRKX reduction by siRNA vs control siRNA, WM115NDes
  increased Sunitinib-induced apoptosis (AdA): 3.9 ± 4.8%
[21]; RSK4 reduction by siRNA vs control siRNA, WM115^NDes
  increased Sunitinib-induced apoptosis (AdA): 5.6 ± 3.8%
[21]; TTBK2 reduction by siRNA vs control siRNA, WM115NDes
  increased Sunitinib-induced apoptosis (AdA): 11.7 ± 4.4%
[22]; [29]
  increased Sunitinib-induced apoptosis (AdA): 3.2 ± 0.4%
[22]; [30]
  increased Sunitinib-induced apoptosis (AdA): 4.8 ± 2.3%
[22]; [31]
  increased Sunitinib-induced apoptosis (AdA): 4.8 ± 1.5%
[23]; [29]
  increased Sunitinib-induced apoptosis (AdA): 23.0 ± 5.4%
[23]; [30]
  increased Sunitinib-induced apoptosis (AdA): 5.3 ± 5.2%
[23]; [31]
  increased Sunitinib-induced apoptosis (AdA): 12.7 ± 2.5%
[24]; PRKX reduction by siRNA vs control siRNA, WM266-4SDes
  increased Sunitinib-induced apoptosis (AdA): 34.1 ± 4.9%
[24]; RSK4 reduction by siRNA vs control siRNA, WM266-4^SDes
  increased Sunitinib-induced apoptosis (AdA): 20.2 ± 5.7%
[24]; TTBK2 reduction by siRNA vs control siRNA, WM266-4SDes
  increased Sunitinib-induced apoptosis (AdA): 16.8 ± 7.7%
[25]; [29]
  increased Sunitinib-induced apoptosis (AdA): 22.4 ± 6.7%
[25]; [30]
  increased Sunitinib-induced apoptosis (AdA): 7.1 ± 2.0%
[25]; [31]
  increased Sunitinib-induced apoptosis (AdA): 5.1 ± 2.0%
[26]
  increased Sunitinib-induced apoptosis (AdA): 14.1 ± 3.2%
[27]; PRKX reduction by siRNA
  increased Sunitinib inhibitory effect (migration): 76.4 ± 4.1%
[27]; RSK4 reduction by siRNA
  increased Sunitinib anti-migratory effect: 8.6 ± 3.1%
[28]; PRKX reduction by siRNA
  inhibition of migration compared to the scrambled siRNA control: 64.4 ± 11.1%
[28]; RSK4 reduction by siRNA
  increase in Sunitinib inhibition of migration: 27.3 ± 2.7%
[28]; TTBK2 reduction by siRNA
  increase in Sunitinib inhibition of migration: 37.1 ± 1.0%
